The text below walks through data of patent US8338422B2, “Indolin-2-ones and aza-indolin-2-ones” (Janssen Pharmaceutica NV, priority 2007, dated 2012).

Several values for one entry are separate records, joined by “and”; a condition that tells them apart may be missing. Equal entries are not always repeated.

Assay type in all cases: biochemical
Assay [1] has as its target PLK4 (h) (Homo sapiens, UniProt O00444). Kind of assay: PLK-4 human kinase assay (SPA). The note with it: for IC50: read-out: PLK4 pIC50 (converted). How it is done: (§1) The in vitro inhibition of a panel of kinases was assessed using either the scintillation proximity assay (SPA) as described by Cook, N. D. et al., Advances in Experimental Medicine and Biology (1991), 36; p. 525-528; or the Fluorescence Resonance Energy Transfer (FRET) technology as described by Rodems, S. M. et al., Assay Drug Develop. Technol. (2002), 1; p. 9-19.
(§2) In the SPA technology the activity of the kinase of interest is measured using an appropriate biotinylated substrate that is incubated with the aforementioned kinase protein in the presence of (^33P) radiolabeled ATP. (^33P) Phosporylation of the substrate is subsequently measured through binding of the phosphorylated substrate to streptavidine coated beads that are based on the scintillant poly(vinyl toluene) (PVT-Beads). The scintillation intensity is detected by imaging on Leadseeker.
(§3) All kinases are pre-diluted to a 10× working concentration prior to addition into the assay. The composition of the dilution buffer for each kinase is detailed below.
In a final reaction volume of 30 μl PLK4 (h) (19 μg/ml) is incubated with 50 mM Hepes pH 8.0, 10 mM MgCl2, 50 mM NaCl, 1 mM NaF, 1 mM DTT, 10 μM of peptide Biotin-RPRGQRDSSYYWE-OH, 1 μM ATP and 2 nM [γ-^33P-ATP] (6.0 μCi/ml). After incubation of 60 minutes at room temperature, the reaction is stopped by addition of 40 μl, of stop solution containing 8.7 mM EDTA, BSA 0.17%, 0.17% Triton X-100, 1.7 mg/ml SPA beads (GE-healthcare). The plate is centriguged and read for Scintillation imaging on Leadseeker.

The target in assay [2] is CDK1/CyclinB (h) (Homo sapiens, UniProt P06493). Kind of assay: CDK1/CyclinB human kinase assay (FRET). The note with it: for IC50: read-out: CDK1 pIC50 (converted). How it is done: as §1
In the FRET technology the activity of the kinase of interest is measured using an appropriate substrate that is labeled with two fluorophores (coumarin and fluorescein). Phosphorylation is determined using a developing reagent comprising a protease that recognizes and cleaves nonphosphorylated peptides. Cleavage will disturb the FRET between the fluorescein and coumarin on the peptide. Uncleaved, phosphorylated peptides maintain the FRET signal. A ratiometric readout of the donor emission over the acceptor emission quantitates the reaction process.
as §3
In a final reaction volume of 10 μl, CDK1/CyclinB (h) (0.2 μg/ml) is incubated with 50 mM Hepes pH 7.5, 10 mM MgCl2, 1 mM EGTA, 0.01% Brij-35, 2 μM Z'lyte Ser/Thr peptide 12 and 10 μM ATP (Invitrogen's FRET assay). After incubation of 60 minutes at room temperature, the reaction is stopped by addition of 5 μL development reagent containing protease mix. After 60 minutes room temperature the development reaction is stopped by adding 5 μl stop solution. The plate is then read in fluorescence plate reader with excitation: 390 nm and dual emission: 460 and 538 nm. Emission ratio is determined to the formula=Emission signal intensity at 460 nm/Emission signal intensity at 538 nm.

Assay [3] has as its target AuroraB (h) (Homo sapiens, UniProt Q96GD4). Kind of assay: Aurora-B human kinase assay (SPA). As to conditions: for IC50: read-out: AuroraB pIC50 (converted). The procedure:
as §1, §2, §3
In a final reaction volume of 30 μl, AuroraB (h) (0.5 μg/ml) is incubated with 60 mM Hepes pH 7.5, 3 mM MgCl2, 3 mM MnCl2, 3 μM Na3VO4, 0.05 mg/ml PEG, 2 mM DTT, 3 μM Biotin-[…]-OH, 0.5 μM ATP and 2.2 nM [γ-^33P-ATP] (6.8 μCi/ml). After incubation of 60 minutes at room temperature, the reaction is stopped by addition of 40 μL of stop solution containing 8.7 mM EDTA, BSA 0.17%, 0.17% Triton X-100, 5 mg/ml SPA beads (GE-healthcare). The plate is centriguged and read for Scintillation imaging on Leadseeker.

Assay [4] deals with GSK3β (h) (Homo sapiens, UniProt P49841). As to the kind of experiment: GSK-3β human kinase assay (SPA). As to conditions: for IC50: read-out: GSK3B pIC50 (converted). The procedure: as §1, §2, §3
In a final reaction volume of 30 μl, GSK3β (h) (1 μg/ml) is incubated with 25 mM Tris pH 7.4, 10 mM MgCl2, 1 mM DTT, 1 μM peptide Biotin-KRREILSRRPSYR-OH, 1 μM ATP and 2 nM [γ-^33P-ATP] (6.0 μCi/ml). After incubation of 60 minutes at room temperature, the reaction is stopped by addition of […] of stop solution containing 8.7 mM EDTA, BSA 0.17%, 0.17% Triton X-100, 6.25 mg/ml SPA beads (GE-healthcare). The plate is centriguged and read for Scintillation imaging on Leadseeker.

CDK1/CyclinB (h), sequence (P06493 whole entry): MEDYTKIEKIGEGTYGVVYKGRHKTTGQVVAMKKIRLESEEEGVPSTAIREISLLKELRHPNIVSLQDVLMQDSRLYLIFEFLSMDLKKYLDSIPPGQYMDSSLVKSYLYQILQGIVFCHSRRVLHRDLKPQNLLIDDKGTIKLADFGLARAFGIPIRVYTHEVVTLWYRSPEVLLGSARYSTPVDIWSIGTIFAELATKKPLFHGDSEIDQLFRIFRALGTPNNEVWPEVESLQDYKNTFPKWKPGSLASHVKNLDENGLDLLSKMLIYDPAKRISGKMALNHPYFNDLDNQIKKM
CDK1/CyclinB (h), sequence (P14635 whole entry partner): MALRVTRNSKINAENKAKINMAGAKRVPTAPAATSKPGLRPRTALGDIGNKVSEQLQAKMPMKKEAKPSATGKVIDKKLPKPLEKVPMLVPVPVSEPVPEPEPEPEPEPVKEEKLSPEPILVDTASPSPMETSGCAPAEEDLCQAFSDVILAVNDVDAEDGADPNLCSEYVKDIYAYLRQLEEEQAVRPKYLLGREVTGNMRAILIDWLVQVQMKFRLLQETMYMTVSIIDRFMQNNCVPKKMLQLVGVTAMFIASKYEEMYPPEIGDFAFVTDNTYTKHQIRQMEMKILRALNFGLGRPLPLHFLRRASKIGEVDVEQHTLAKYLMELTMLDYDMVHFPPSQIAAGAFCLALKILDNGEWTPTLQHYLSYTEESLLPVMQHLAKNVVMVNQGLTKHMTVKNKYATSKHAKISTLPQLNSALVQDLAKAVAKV
GSK3β (h), sequence (P49841 whole entry): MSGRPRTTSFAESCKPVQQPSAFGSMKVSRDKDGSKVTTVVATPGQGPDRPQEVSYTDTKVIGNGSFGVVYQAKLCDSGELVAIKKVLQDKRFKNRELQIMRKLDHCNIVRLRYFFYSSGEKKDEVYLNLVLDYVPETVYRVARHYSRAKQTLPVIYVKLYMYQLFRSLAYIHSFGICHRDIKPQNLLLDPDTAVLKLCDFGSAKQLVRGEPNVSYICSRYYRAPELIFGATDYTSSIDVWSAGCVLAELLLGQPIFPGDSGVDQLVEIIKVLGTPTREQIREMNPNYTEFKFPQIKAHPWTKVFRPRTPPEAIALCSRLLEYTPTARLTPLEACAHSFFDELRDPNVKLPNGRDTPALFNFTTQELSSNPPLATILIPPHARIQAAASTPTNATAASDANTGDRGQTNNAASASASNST
AuroraB (h), sequence (Q96GD4 whole entry): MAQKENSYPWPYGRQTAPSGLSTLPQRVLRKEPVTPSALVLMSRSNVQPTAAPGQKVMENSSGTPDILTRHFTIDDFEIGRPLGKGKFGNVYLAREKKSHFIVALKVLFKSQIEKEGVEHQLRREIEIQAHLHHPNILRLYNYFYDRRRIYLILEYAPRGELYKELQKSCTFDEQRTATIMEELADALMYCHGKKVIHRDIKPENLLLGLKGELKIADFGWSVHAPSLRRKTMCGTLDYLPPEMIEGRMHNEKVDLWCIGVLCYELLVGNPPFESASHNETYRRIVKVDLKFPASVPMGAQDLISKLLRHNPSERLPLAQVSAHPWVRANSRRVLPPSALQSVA
PLK4 (h), sequence (O00444 whole entry): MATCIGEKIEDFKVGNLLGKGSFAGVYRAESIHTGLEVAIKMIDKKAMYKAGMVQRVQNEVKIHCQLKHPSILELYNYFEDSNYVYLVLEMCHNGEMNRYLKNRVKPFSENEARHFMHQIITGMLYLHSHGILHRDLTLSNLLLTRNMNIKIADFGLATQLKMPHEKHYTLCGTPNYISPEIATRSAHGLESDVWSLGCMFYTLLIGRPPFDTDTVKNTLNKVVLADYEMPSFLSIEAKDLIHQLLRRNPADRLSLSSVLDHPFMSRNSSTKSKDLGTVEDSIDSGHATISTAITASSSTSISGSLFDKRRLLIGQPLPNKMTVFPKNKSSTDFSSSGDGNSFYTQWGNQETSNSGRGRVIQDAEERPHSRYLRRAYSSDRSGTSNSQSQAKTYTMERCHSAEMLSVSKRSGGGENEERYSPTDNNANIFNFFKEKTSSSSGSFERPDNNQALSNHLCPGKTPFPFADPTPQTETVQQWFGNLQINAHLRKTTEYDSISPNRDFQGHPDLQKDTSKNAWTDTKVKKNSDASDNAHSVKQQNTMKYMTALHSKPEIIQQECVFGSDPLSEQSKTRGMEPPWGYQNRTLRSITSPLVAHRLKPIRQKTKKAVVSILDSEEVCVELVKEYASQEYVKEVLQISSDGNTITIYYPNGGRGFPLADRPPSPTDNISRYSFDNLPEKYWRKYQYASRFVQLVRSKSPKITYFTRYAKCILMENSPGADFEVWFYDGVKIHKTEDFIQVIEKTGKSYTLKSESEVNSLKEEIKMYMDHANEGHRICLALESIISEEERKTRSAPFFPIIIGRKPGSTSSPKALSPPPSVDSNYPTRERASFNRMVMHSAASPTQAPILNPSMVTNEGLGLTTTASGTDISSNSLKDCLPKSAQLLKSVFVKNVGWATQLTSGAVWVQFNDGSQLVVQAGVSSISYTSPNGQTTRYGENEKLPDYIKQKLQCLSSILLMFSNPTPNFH

For the molecule `CCN1CCCCCC(=O)N2CCN(CC2)c2cccc3c2C(=CNc2cccc(c2)S(=O)(=O)N(C)CC1=O)C(=O)N3` (mixture of isomers) [Compound 1], the IC50 was 6.92 µM in assay [1], greater than 10 µM in assay [2], greater than 10 µM in assay [3] and 1.82 µM in assay [4].
As for `CN1CCCC(=O)N2CCN(CC2)c2ncnc3c2C(=CNc2cccc(c2)C1)C(=O)N3` (mixture of isomers) [Compound 11], the IC50 in assay [1] is 3.09 µM.
With `O=C1Nc2ncnc3c2C1=CNc1ccc(Cl)c(c1)OCCCCC(=O)N1CCN3CC1` (mixture of isomers) [Compound 12], in assay [1], the IC50 was greater than 10 µM.
With `O=C1Nc2ncnc3c2C1=CNc1cc(ccc1Cl)OCCCCCC(=O)N1CCN3CC1` (mixture of isomers) [Compound 19], in assay [1], the “PLK4 pIC50” value was less than 5. Moreover, the “AuroraB pIC50” value in assay [3] was less than 5.
For the molecule `COc1ccc2cc1OCCCCC(=O)N(C)CCCNc1ncnc3c1C(=CN2)C(=O)N3` (mixture of isomers) [Compound 62], the “PLK4 pIC50” value in assay [1] came to 6.9. Moreover, the “CDK1 pIC50” value in assay [2] is 6.46. Moreover, in assay [3], the “AuroraB pIC50” value is listed as 7.75. Besides, the “GSK3B pIC50” value in assay [4] turned out to be 7.57.
As for `CN1CC(=O)NCC#Cc2cccc3c2/C(=C/Nc2cccc(c2)S1(=O)=O)C(=O)N3` [Compound 4], the IC50 in assay [1] was 0.102 µM; in assay [3], greater than 10 µM.
As to `COc1ccc2cc1OCCCCCC(=O)N(C)CCCN(C)c1ncnc3c1/C(=C/N2)C(=O)N3` [Compound 84], the IC50 is 2.95 µM in assay [1], greater than 10 µM in assay [3] and 0.372 µM in assay [4].
Taken in the same sequence, the figures for `COc1ccc2cc1OCCCCCCC(=O)N(C)CCCN(C)c1ncnc3c1/C(=C/N2)C(=O)N3` [Compound 85] were 5.01 µM, greater than 10 µM and 1.1 µM.
`CN1CCCCC(=O)N(C)CCNc2ncnc3c2/C(=C/Nc2ccc(N4CCOCC4)c(c2)C1)C(=O)N3` [Compound 93]: the figures for the IC50 in assay [1], in assay [2] and in assay [3] were 7.24 µM, greater than 10 µM and greater than 10 µM, respectively.
For `O=C1COc2cccc(c2)N/C=C2\C(=O)Nc3ncnc(c32)N2CCN(CC2)C[C@@H](Cc2ccccc2)N1` [Compound 101], the figures for the IC50 in assay [1], in assay [3] and in assay [4] were 3.16 µM, greater than 10 µM and 0.457 µM, respectively.
For `CN1CCCNc2ncnc3c2/C(=C/Nc2cccc(c2)OCCN(C)[C@H](CO)C1=O)C(=O)N3` [Compound 102], in that order: 1.95 µM, 6.46 µM and 0.0776 µM.
For the molecule `CN1CCCNc2ncnc3c2/C(=C/Nc2cccc(c2)OCCN(C)[C@H](CO)C1=O)C(=O)N3` [Compound 103], the IC50 in assay [1] was 1.86 µM and 4.17 µM; in assay [3] it was 8.71 µM and 7.76 µM.
Turning to `CN1CCC(=O)N(C)CCNc2ncnc3c2/C(=C/Nc2ccc(Cl)c(c2)OCC(O)C1)C(=O)N3` (centres unmarked) [Compound 104], the IC50 is 3.39 µM in assay [3] and 1.1 µM in assay [4].
For the molecule `COCCN1CCOc2cccc(c2)N/C=C2\C(=O)Nc3ncnc(c32)NCCN(C)C(=O)C1` [Compound 161], the figures for the IC50 in assay [1], in assay [3] and in assay [4] were 5.13 µM, 7.41 µM and 0.832 µM, respectively.
Consider `COCCN1CCCOc2cccc(c2)N/C=C2\C(=O)Nc3ncnc(c32)NCCN(C)C(=O)C1` [Compound 162], for which the IC50 was 3.09 µM in assay [1], greater than 10 µM in assay [3] and 2.51 µM in assay [4].
For the molecule `COCCN1CCOc2cccc(c2)N/C=C2\C(=O)Nc3ncnc(c32)NCCCN(C)C(=O)C1` [Compound 163], the IC50 is 0.589 µM in assay [1], 6.46 µM in assay [3] and 0.0631 µM in assay [4].
Taken in the same sequence, the figures for `CN1CCNc2ncnc3c2/C(=C/Nc2cccc(c2)OCCN(C)[C@H](CO)C1=O)C(=O)N3` [Compound 164] were 3.63 µM, 5.25 µM and 0.759 µM.
Take `CN1CCNc2ncnc3c2/C(=C/Nc2cccc(c2)OCCN2C[C@H](O)C[C@@H]2C1=O)C(=O)N3` [Compound 166]: the values for the IC50 in assay [1], in assay [3] and in assay [4] were 2.19 µM, greater than 10 µM and 1.02 µM, respectively.
Taken in the same sequence, the figures for `O=C1Nc2ncnc3c2/C1=C/Nc1cccc(c1)OCCN1C[C@H](O)C[C@@H]1C(=O)N1CCN3CC1` [Compound 171] were greater than 10 µM, greater than 10 µM and 0.309 µM.
With `CN1CCNc2ncnc3c2/C(=C/Nc2cccc(c2)OCCCN(C)[C@H](CO)C1=O)C(=O)N3` [Compound 173], the results for the IC50 in assay [1], in assay [3] and in assay [4] were 4.27 µM, greater than 10 µM and 0.575 µM, respectively.
Take `COCCN1CCCOc2cc(ccc2Cl)N/C=C2\C(=O)Nc3ncnc(c32)NCCN(C)C(=O)C1` [Compound 174]: the IC50 in assay [1] is greater than 10 µM; in assay [3], greater than 10 µM; in assay [4] it was 1.62 µM and 1.86 µM.
On to `O=C1Nc2ncnc3c2/C1=C/Nc1cccc(c1)OCCCN1C[C@H](O)C[C@@H]1C(=O)N1CCN3CC1` [Compound 175], for which the IC50 is greater than 10 µM in assay [1]; greater than 10 µM in assay [3]; 1.58 µM and 1.35 µM in assay [4].
Regarding `CN1CCCNc2ncnc3c2/C(=C/Nc2ccc(Cl)c(c2)OCCN(C)[C@H](CO)C1=O)C(=O)N3` [Compound 177], the IC50 in assay [1] is 4.37 µM and 7.24 µM; in assay [3], 2.51 µM and 6.46 µM; in assay [4] it was 0.0661 µM and 0.0457 µM.
Take `COCCN1CCCOc2cc(ccc2Cl)N/C=C2\C(=O)Nc3ncnc(c32)N2CCN(CC2)C(=O)C1` [Compound 180]: the IC50 in assay [1] was greater than 10 µM; in assay [3], greater than 10 µM; in assay [4] it was 3.47 µM and 5.37 µM.
As to `CN1CCCOc2cc(ccc2Cl)N/C=C2\C(=O)Nc3ncnc(c32)N2CCN(CC2)C(=O)[C@H]1CO` [Compound 181], the IC50 in assay [1] is greater than 10 µM; in assay [3] it was greater than 10 µM; in assay [4] it was 2.24 µM.
For the molecule `CN1CCNc2ncnc3c2/C(=C/Nc2ccc(Cl)c(c2)OCCCN(C)[C@H](CO)C1=O)C(=O)N3` [Compound 190], the IC50 in assay [1] is greater than 10 µM; in assay [3], greater than 10 µM; in assay [4], 1.55 µM.
Turning to `CN1CCNc2ncnc3c2/C(=C/Nc2ccc(Cl)c(c2)OCCN2C[C@H](O)C[C@@H]2C1=O)C(=O)N3` [Compound 194], the IC50 in assay [1] was 5.13 µM; in assay [3] it was greater than 10 µM; in assay [4], 0.457 µM.
With `O=C1Nc2ncnc3c2/C1=C/Nc1ccc(Cl)c(c1)OCCN1C[C@H](O)C[C@@H]1C(=O)N1CCN3CC1` [Compound 196], the IC50 was greater than 10 µM in assay [3] and 1.51 µM in assay [4].
For `COCCN1CCCOc2cc(ccc2OC)N/C=C2\C(=O)Nc3ncnc(c32)NCCNC(=O)C1` [Compound 202], in that order: 3.98 µM and 4.68 µM.
With `COc1ccc2cc1OCCCN(C)[C@H](CO)C(=O)N1CCN(CC1)c1ncnc3c1/C(=C/N2)C(=O)N3` [Compound 204], the IC50 is greater than 10 µM in assay [3] and 1.35 µM in assay [4].
Taken in the same sequence, the figures for `COCCN1CCOc2cc(ccc2Cl)N/C=C2\C(=O)Nc3ncnc(c32)NCCCN(C)C(=O)C1` [Compound 205] were greater than 10 µM and 0.0933 µM.
